Assay results reported in patent US9655838B2, “Antimicrobial compositions comprising essential oil combinations” (priority 2013, dated 2017).
Read-outs that look alike come from different tables or passages of the source.

Columns and labels:
A. viscosus = experiment: Determination of MIC of individual essential oils (broth microdilution, O.D. at 610 nm); type: cell-based, A. viscosus ATCC 43146; conditions: for MIC: Actinomyces viscosus
Description: Minimum inhibitory concentration (MIC) is assessed as follows: A 96-well microtiter plate is inoculated with 100 μl of TSB (Tryptic Soy Broth) media in each well. Stock solutions of the active are prepared as required (w/v basis) in percent. The different stock solutions (>1%) are used to achieve the final MIC concentration of the actives. The positive control (Triclosan) is prepared as a 0.1% stock solution. Each active is diluted 1:10 using sterile TSB. 100 μl of the stock solution is added in the first column for the actives and the controls. Transfer 100 μl of the solution from the first column to the next, mix and repeat the transfer to serially dilute 2-fold across the plate. The last 100 μl is discarded. Prepare 0.2-0.3 O.D. activated culture of A. viscosus ATCC 43146 grown in TSB overnight at 37° C. Add 100 μl of the adjusted bacterial culture to each well. Incubate the plates for 24 hours at 37° C. Determine the growth by measuring the O.D. at 610 nm. The data is transferred to an Excel spreadsheet for comparison of the O.D. values. The concentration higher than the lowest concentration with large increment in O.D. is taken as the MIC. Depending on the value obtained the MIC is repeated using higher or lower concentrations of the stock solution. This gives the closest value of the concentration determined by serial dilution at which the microorganism is inhibited (MIC).

[1] = cited from earlier work
[2] = individual essential oils against A. viscosus, 24 hours at 37° C, read-out: MIC value (ppm)
[3] = Table 3, essential oil alone, read-out: Individual MIC (concentration of each essential oil alone necessary to produce the same effect)
[4] = individual essential oils against A. viscosus, 24 hours at 37° C

Molecule	MIC (A. viscosus; [2])	MIC value (ppm) (A. viscosus; [4])	further results
OCc1ccccc1 [Benzyl alcohol]	700 µg/mL	–	–
Cc1ccc(C(C)C)cc1O [Carvacrol, carvacrol]	–	–	MIC (A. viscosus; 24 h, read-out: MIC value (ppm)): 80 µg/mL; MIC (A. viscosus; read-out: Individual MIC (concentration of each essential oil alone necessary to produce the same effect)): 80 µg/mL; Individual MIC (concentration of each essential oil alone necessary to produce the same effect) (A. viscosus; Table 3, essential oil alone): 80 ppm
CC(C)=CCCC(C)=CC=O [Citral]	250 µg/mL	–	MIC (A. viscosus; [3]): 250 µg/mL
CCCc1ccc(O)c(OC)c1 [Dihydro-eugenol]	–	500 ppm	–
CC12CCC(CC1)C(C)(C)O2 [Eucalyptol]	250 µg/mL	–	–
C=CCc1ccc(O)c(OC)c1 [Eugenol]	2000 µg/mL	–	–
Cc1cc(O)ccc1C(C)C [IPMP (99.8% pure)]	–	160 ppm	–
COC(=O)c1ccccc1O [Methyl salicylate]	1000 µg/mL	–	–
Cc1ccc(C(C)C)c(O)c1 [Thymol (98% pure), Thymol]	900 µg/mL	–	MIC (A. viscosus; [3]): 900 µg/mL
O=C([O-])CC(O)(CC(=O)[O-])C(=O)[O-].O=C([O-])CC(O)(CC(=O)[O-])C(=O)[O-].[Zn+2].[Zn+2].[Zn+2] [Zinc citrate]	–	160 ppm	–
[O]=[Zn] [Zinc oxide]	–	625 ppm	–
CC(C)=CCC[C@](C)(O)[C@@H]1CC=C(C)CC1 [bisabolol, α-(−)-bisabolol]	–	–	Solubility in ethanol ([1]; ethanol): soluble; Solubility in water and glycerin ([1]; water and glycerin): almost insoluble
Catechins hydrate	–	100 ppm	–
α-(±)-bisabolol [Syn. Bisabolol]	–	125 ppm	Individual MIC (concentration of each essential oil alone necessary to produce the same effect) (A. viscosus; Table 3, essential oil alone): 125 ppm
